US8022099B2, “N-benzyl pyrrolidine derivatives” (Hoffmann-La Roche Inc., priority 2008, dated 2011)

Target: T1, human NK3 receptor (Homo sapiens, UniProt P29371)
T1 construct: expressed in transfected cells; host or cells: HEK293 cells (transient expression), membrane preparation
T1 sequence (P29371 1-465): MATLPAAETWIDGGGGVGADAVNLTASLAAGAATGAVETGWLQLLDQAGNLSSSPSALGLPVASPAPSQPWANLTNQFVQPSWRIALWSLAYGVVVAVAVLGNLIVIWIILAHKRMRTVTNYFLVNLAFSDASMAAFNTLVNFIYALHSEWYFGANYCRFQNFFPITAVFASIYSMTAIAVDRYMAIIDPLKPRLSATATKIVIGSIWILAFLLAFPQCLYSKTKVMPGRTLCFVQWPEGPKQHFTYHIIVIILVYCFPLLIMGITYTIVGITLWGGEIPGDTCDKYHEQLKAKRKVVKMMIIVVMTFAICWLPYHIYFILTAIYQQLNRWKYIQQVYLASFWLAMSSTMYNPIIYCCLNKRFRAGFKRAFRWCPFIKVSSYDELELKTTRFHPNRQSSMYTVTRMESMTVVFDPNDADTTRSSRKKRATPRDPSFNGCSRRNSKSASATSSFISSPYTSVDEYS
Assay: [3H]SR142801 competition binding assay
Settings: hNK3 receptor binding, [3H]SR142801, membranes from HEK293 cells transiently expressing recombinant human NK3 receptor
Procedure: [^3H]SR142801 Competition Binding Assay
hNK3 receptor binding experiment were performed using [^3H]SR142801 (Catalog No. TRK1035, specific activity: 74.0 Ci/mmol, Amersham, GE Healthcare UK limited, Buckinghamshire, UK) and membrane isolated from HEK293 cells transiently expressing recombinant human NK3 receptor. After thawing, the membrane homogenates were centrifuged at 48,000×g for 10 min at 4° C., the pellets were resuspended in the 50 mM Tris-HCl, 4 mM MnCl2, 1 μM phosphoramidon, 0.1% BSA binding buffer at pH 7.4 to a final assay concentration of 5 μg protein/well. For inhibition experiments, membranes were incubated with [^3H]SR142801 at a concentration equal to KD value of radioligand and 10 concentrations of the inhibitory compound (0.0003-10 μM) (in a total reaction volume of 500 μl) for 75 min at room temperature (RT). At the end of the incubation, membranes were filtered onto unitfilter (96-well white microplate with bonded GF/C filter preincubated 1 h in 0.3% PEI+0.3% BSA, Packard BioScience, Meriden, Conn.) with a Filtermate 196 harvester (Packard BioScience) and washed 4 times with ice-cold 50 mM Tris-HCl, pH 7.4 buffer. Nonspecific binding was measured in the presence of 10 μM SB222200 for both radioligands. The radioactivity on the filter was counted (5 min) on a Packard Top-count microplate scintillation counter with quenching correction after addition of 45 μl of microscint 40 (Canberra Packard S. A., Zürich, Switzerland) and shaking for 1 h. Inhibition curves were fitted according to the Hill equation: y=100/(1+(x/IC50)^nH), where nH=slope factor using Excel-fit 4 software (Microsoft). IC50 values were derived from the inhibition curve and the affinity constant (Ki) values were calculated using the Cheng-Prussoff equation Ki=IC50/(1+[L]/KD) where [L] is the concentration of radioligand and KD is its dissociation constant at the receptor, derived from the saturation isotherm. All experiments were performed in duplicate and the mean±standard error (SEM) of the individual Ki values was calculated.

Ki	SMILES
76.2 nM	CN(Cc1ccc2c(c1)OCC2)[C@H]1CN(C(=O)N2CCN(S(C)(=O)=O)CC2)C[C@@H]1c1ccc(Cl)c(Cl)c1 (racemic) [Example 37, {(3SR,4RS)-3-(3,4-Dichloro-phenyl)-4-[(2,3-dihydro-benzofuran-6-ylmethyl)-methyl-amino]-pyrrolidin-1-yl}-(4-methanesulfonyl-piperazin-1-yl)-methanone]
17.3 nM	CC(=O)N1CCN(C(=O)N2C[C@H](c3ccc(Cl)c(Cl)c3)[C@@H](N(C)Cc3ccc(C(F)(F)F)c(F)c3)C2)CC1 (racemic) [Example 51, 1-(4-{(3SR,4RS)-3-(3,4-Dichloro-phenyl)-4-[(3-fluoro-4-trifluoromethyl-benzyl)-methyl-amino]-pyrrolidine-1-carbonyl}-piperazin-1-yl)-ethanone]
71.3 nM	CN(Cc1ccc(C(F)(F)F)c(F)c1)[C@H]1CN(C(=O)N2CCOCC2)C[C@@H]1c1ccc(Cl)c(Cl)c1 (racemic) [Example 52, {(3SR,4RS)-3-(3,4-Dichloro-phenyl)-4-[(3-fluoro-4-trifluoromethyl-benzyl)-methyl-amino]-pyrrolidin-1-yl}-morpholin-4-yl-methanone]
22 nM	CN(Cc1ccc(C#N)c(F)c1)[C@H]1CN(C(=O)N2CCN(S(C)(=O)=O)CC2)C[C@@H]1c1ccc(Cl)c(Cl)c1 (racemic) [Example 56, 4-({[(3RS,4SR)-4-(3,4-Dichloro-phenyl)-1-(4-methanesulfonyl-piperazine-1-carbonyl)-pyrrolidin-3-yl]-methyl-amino}-methyl)-2-fluoro-benzonitrile]
8.6 nM	CN(Cc1ccc(C(F)(F)F)c(F)c1)[C@H]1CN(C(=O)N2CCN(c3ncccn3)CC2)C[C@@H]1c1ccc(Cl)c(Cl)c1 (racemic) [Example 63, {(3SR,4RS)-3-(3,4-Dichloro-phenyl)-4-[(3-fluoro-4-trifluoromethyl-benzyl)-methyl-amino]-pyrrolidin-1-yl}-(4-pyrimidin-2-yl-piperazin-1-yl)-methanone]
3 nM	CN(Cc1ccc(C(F)(F)F)c(F)c1)[C@H]1CN(C(=O)N2CCN(CCCO)CC2)C[C@@H]1c1ccc(Cl)c(Cl)c1 (racemic) [Example 66, {(3SR,4RS)-3-(3,4-Dichloro-phenyl)-4-[(3-fluoro-4-trifluoromethyl-benzyl)-methyl-amino]-pyrrolidin-1-yl}-[4-(3-hydroxy-propyl)-piperazin-1-yl]-methanone]
6.2 nM	CN(Cc1ccc(C(F)(F)F)c(F)c1)[C@H]1CN(C(=O)N2CCN(CCO)CC2)C[C@@H]1c1ccc(Cl)c(Cl)c1 (racemic) [Example 67, {(3SR,4RS)-3-(3,4-Dichloro-phenyl)-4-[(3-fluoro-4-trifluoromethyl-benzyl)-methyl-amino]-pyrrolidin-1-yl}-[4-(2-hydroxy-ethyl)-piperazin-1-yl]-methanone]
5.9 nM	CN(Cc1ccc(C(F)(F)F)c(F)c1)[C@H]1CN(C(=O)N2CCN(c3ccncc3)CC2)C[C@@H]1c1ccc(Cl)c(Cl)c1 (racemic) [Example 68, {(3SR,4RS)-3-(3,4-Dichloro-phenyl)-4-[(3-fluoro-4-trifluoromethyl-benzyl)-methyl-amino]-pyrrolidin-1-yl}-(4-pyridin-4-yl-piperazin-1-yl)-methanone]
10.5 nM	CN(Cc1ccc(C(F)(F)F)c(F)c1)[C@H]1CN(C(=O)N2CCN(c3ccccc3C#N)CC2)C[C@@H]1c1ccc(Cl)c(Cl)c1 (racemic) [Example 70, 2-(4-{(3SR,4RS)-3-(3,4-Dichloro-phenyl)-4-[(3-fluoro-4-trifluoromethyl-benzyl)-methyl-amino]-pyrrolidine-1-carbonyl}-piperazin-1-yl)-benzonitrile]
5.4 nM	CN(C)CCCN1CCN(C(=O)N2C[C@H](c3ccc(Cl)c(Cl)c3)[C@@H](N(C)Cc3ccc(C(F)(F)F)c(F)c3)C2)CC1 (racemic) [Example 74, {(3SR,4RS)-3-(3,4-Dichloro-phenyl)-4-[(3-fluoro-4-trifluoromethyl-benzyl)-methyl-amino]-pyrrolidin-1-yl}-[4-(3-dimethylamino-propyl)-piperazin-1-yl]-methanone]

Second part, the compound before the results:

SMILES	Ki
Cc1cc(CN(C)[C@H]2CN(C(=O)N3CCN(S(C)(=O)=O)CC3)C[C@@H]2c2ccc(Cl)c(Cl)c2)ccc1F (racemic) [Example 43, {(3SR,4RS)-3-(3,4-Dichloro-phenyl)-4-[(4-fluoro-3-methyl-benzyl)-methyl-amino]-pyrrolidin-1-yl}-(4-methanesulfonyl-piperazin-1-yl)-methanone]	84.9 nM
CN(Cc1ccc2cc[nH]c2c1)[C@H]1CN(C(=O)N2CCN(S(C)(=O)=O)CC2)C[C@@H]1c1ccc(Cl)c(Cl)c1 (racemic) [Example 47, {(3SR,4RS)-3-(3,4-Dichloro-phenyl)-4-[(1H-indol-6-ylmethyl)-methyl-amino]-pyrrolidin-1-yl}-(4-methanesulfonyl-piperazin-1-yl)-methanone]	69.1 nM
CN(Cc1ccc(C(F)(F)F)c(F)c1)[C@H]1CN(C(=O)CCCCN2CCOCC2)C[C@@H]1c1ccc(Cl)c(Cl)c1 (racemic) [Example 62, 1-{(3SR,4RS)-3-(3,4-Dichloro-phenyl)-4-[(3-fluoro-4-trifluoromethyl-benzyl)-methyl-amino]-pyrrolidin-1-yl}-5-morpholin-4-yl-pentan-1-one]	11 nM
COc1ccc(N2CCN(C(=O)N3C[C@H](c4ccc(Cl)c(Cl)c4)[C@@H](N(C)Cc4ccc(C(F)(F)F)c(F)c4)C3)CC2)cc1 (racemic) [Example 64, {(3SR,4RS)-3-(3,4-Dichloro-phenyl)-4-[(3-fluoro-4-trifluoromethyl-benzyl)-methyl-amino]-pyrrolidin-1-yl}-[4-(4-methoxy-phenyl)-piperazin-1-yl]-methanone]	2.8 nM
CN(Cc1ccc(C(F)(F)F)c(F)c1)[C@H]1CN(C(=O)N2CCN(c3ccccn3)CC2)C[C@@H]1c1ccc(Cl)c(Cl)c1 (racemic) [Example 65, {(3SR,4RS)-3-(3,4-Dichloro-phenyl)-4-[(3-fluoro-4-trifluoromethyl-benzyl)-methyl-amino]-pyrrolidin-1-yl}-(4-pyridin-2-yl-piperazin-1-yl)-methanone]	4.1 nM
CN(Cc1ccc(C(F)(F)F)c(F)c1)[C@H]1CN(C(=O)N2CCN(c3cnccn3)CC2)C[C@@H]1c1ccc(Cl)c(Cl)c1 (racemic) [Example 69, {(3SR,4RS)-3-(3,4-Dichloro-phenyl)-4-[(3-fluoro-4-trifluoromethyl-benzyl)-methyl-amino]-pyrrolidin-1-yl}-(2,3,5,6-tetrahydro-[1,2′]bipyrazinyl-4-yl)-methanone]	4.7 nM
CN(Cc1ccc(C(F)(F)F)c(F)c1)[C@H]1CN(C(=O)N2CCN(c3ccc(C#N)cc3)CC2)C[C@@H]1c1ccc(Cl)c(Cl)c1 (racemic) [Example 72, 4-(4-{(3SR,4RS)-3-(3,4-Dichloro-phenyl)-4-[(3-fluoro-4-trifluoromethyl-benzyl)-methyl-amino]-pyrrolidine-1-carbonyl}-piperazin-1-yl)-benzonitrile]	2.7 nM
CN(Cc1ccc(C(F)(F)F)c(F)c1)[C@H]1CN(C(=O)N2CCN(c3ccc(C#N)cn3)CC2)C[C@@H]1c1ccc(Cl)c(Cl)c1 (racemic) [Example 73, 6-(4-{(3SR,4RS)-3-(3,4-Dichloro-phenyl)-4-[(3-fluoro-4-trifluoromethyl-benzyl)-methyl-amino]-pyrrolidine-1-carbonyl}-piperazin-1-yl)-nicotinonitrile]	1.9 nM
CN(C)CCN1CCN(C(=O)N2C[C@H](c3ccc(Cl)c(Cl)c3)[C@@H](N(C)Cc3ccc(C(F)(F)F)c(F)c3)C2)CC1 (racemic) [Example 75, {(3SR,4RS)-3-(3,4-Dichloro-phenyl)-4-[(3-fluoro-4-trifluoromethyl-benzyl)-methyl-amino]-pyrrolidin-1-yl}-[4-(2-dimethylamino-ethyl)-piperazin-1-yl]-methanone]	4.6 nM
